Experiments:
[1] = molecular target: T1, Cholecystokinin receptor type A (Rattus norvegicus, UniProt P30551)
T1 sequence (P30551 whole entry): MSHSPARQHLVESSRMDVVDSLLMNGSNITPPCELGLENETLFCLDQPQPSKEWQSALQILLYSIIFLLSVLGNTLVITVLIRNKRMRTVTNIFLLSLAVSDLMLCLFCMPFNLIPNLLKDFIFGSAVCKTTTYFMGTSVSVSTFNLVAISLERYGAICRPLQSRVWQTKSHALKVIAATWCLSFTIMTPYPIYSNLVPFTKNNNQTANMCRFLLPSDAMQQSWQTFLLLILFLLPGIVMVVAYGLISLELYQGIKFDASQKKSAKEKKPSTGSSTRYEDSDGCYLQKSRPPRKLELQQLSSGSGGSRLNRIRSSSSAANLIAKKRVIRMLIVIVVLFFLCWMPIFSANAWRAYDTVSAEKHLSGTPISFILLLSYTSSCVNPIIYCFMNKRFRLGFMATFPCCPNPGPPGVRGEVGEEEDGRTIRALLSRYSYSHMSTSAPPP

[2] = molecular target: T2, Cholecystokinin receptor type A (Rattus norvegicus) (UniProt P30551); settings: 10 uM
T2 sequence (whole entry): T1 sequence (P30551 whole entry)

[3] = molecular target: T3, Gastrin/cholecystokinin type B receptor (Mus musculus) (UniProt P56481); assay type: tissue-based; settings: Cerebral cortex; 1 uM
T3 sequence (whole entry): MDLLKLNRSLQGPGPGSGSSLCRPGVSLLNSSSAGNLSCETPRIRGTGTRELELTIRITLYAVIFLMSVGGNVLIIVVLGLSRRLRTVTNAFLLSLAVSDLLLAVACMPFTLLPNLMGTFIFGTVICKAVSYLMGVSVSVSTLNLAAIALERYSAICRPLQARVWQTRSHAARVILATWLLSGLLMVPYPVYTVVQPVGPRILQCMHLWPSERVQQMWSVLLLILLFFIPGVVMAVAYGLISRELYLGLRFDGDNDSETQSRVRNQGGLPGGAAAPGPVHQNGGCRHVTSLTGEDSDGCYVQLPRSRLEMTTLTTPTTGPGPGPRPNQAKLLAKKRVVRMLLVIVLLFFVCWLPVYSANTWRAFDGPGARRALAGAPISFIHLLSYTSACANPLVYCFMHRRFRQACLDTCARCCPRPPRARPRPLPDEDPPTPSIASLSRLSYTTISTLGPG

[4] = molecular target: T3, Gastrin/cholecystokinin type B receptor (Mus musculus); assay type: tissue-based; settings: Cerebral cortex; 10 uM
[5] = molecular target: T2, Cholecystokinin receptor type A (Rattus norvegicus); settings: 1 uM

Structure (SMILES)	IC50 [1]	other results
CN(C)C(=O)c1oc2ccccc2c1CC(C)(NC(=O)OC1C2CC3CC(C2)CC1C3)C(=O)NCCc1ccccc1 (centres undefined)	65 nM	–
O=C(O)CCC(=O)N[C@@H](CNC(=O)C1(NC(=O)OC2C3CC4CC(C3)CC2C4)Cc2ccccc2C1)c1ccccc1 (some centres undefined)	1350 nM	–
CC(Cc1c[nH]c2ccc(F)cc12)(NC(=O)OC1C2CC3CC(C2)CC1C3)C(=O)NC[C@H](NC(=O)CCC(=O)OCc1ccccc1)c1ccccc1 (some centres undefined)	2650 nM	–
C[C@](Cc1c[nH]c2ccc(F)cc12)(NC(=O)OC1C2CC3CC(C2)CC1C3)C(=O)NC[C@H](NC(=O)CCC(=O)O)c1ccccc1 (some centres undefined)	2860 nM	–
O=C(NC1(C(=O)NCCc2ccccc2)Cc2ccccc2C1)OC1C2CC3CC(C2)CC1C3 (centres undefined)	–	inhibition [2]: 22%
CC(Cc1ccc(Oc2ccccc2)cc1)(NC(=O)OC1C2CC3CC(C2)CC1C3)C(=O)N[C@H](CO)[C@H](O)c1ccccc1 (some centres undefined)	616 nM	–
CC(CCCN)(NC(=O)OC1C2CC3CC(C2)CC1C3)C(=O)NCCc1ccccc1 (centres undefined)	–	inhibition [3]: 3%
C[C@@](Cc1c[nH]c2ccccc12)(NC(=O)OC1C2CC3CC(C2)CC1C3)C(=O)N[C@H](CO)[C@H](O)c1ccccc1 (some centres undefined)	681 nM	–
O=C(O)CCC(=O)N[C@@H](CNC(=O)C(Cc1c[nH]c2ccc(F)cc12)NC(=O)OC1C2CC3CC(C2)CC1C3)c1ccccc1 (some centres undefined)	1910 nM	–
CC(CCCN1C(=O)c2ccccc2C1=O)(NC(=O)OC1C2CC3CC(C2)CC1C3)C(=O)NCCc1ccccc1 (centres undefined)	–	inhibition [3]: 8%
CC(Cc1c[nH]c2ccc(F)cc12)(NC(=O)OC1C2CC3CC(C2)CC1C3)C(=O)NC[C@H](NC(=O)CCC(=O)O)c1ccccc1 (some centres undefined)	2180 nM	–
O=C(CCC(=O)OCc1ccccc1)N[C@@H](CNC(=O)C(Cc1c[nH]c2ccc(F)cc12)NC(=O)OC1C2CC3CC(C2)CC1C3)c1ccccc1 (some centres undefined)	583 nM	–
CC(Cc1ccc2c(c1)C(C)(C)CCC2(C)C)(NC(=O)OC1C2CC3CC(C2)CC1C3)C(=O)NCCc1ccccc1 (centres undefined)	19800 nM	–
Cc1noc(C)c1CC(C)(NC(=O)OC1C2CC3CC(C2)CC1C3)C(=O)NCCc1ccccc1 (centres undefined)	6940 nM	–
Cc1noc(C)c1-c1nc(CC(C)(NC(=O)OC2C3CC4CC(C3)CC2C4)C(=O)NCCc2ccccc2)no1 (centres undefined)	–	inhibition [4]: 28%; inhibition [2]: 20%
COc1ccc(CC(C)(NC(=O)OC2C3CC4CC(C3)CC2C4)C(=O)N[C@H](CO)[C@H](O)c2ccccc2)cc1 (some centres undefined)	–	inhibition [5]: 43%
O=C(NC1(C(=O)NCCc2ccccc2)CC2(Cc3cccc4cccc(c34)C2)C1)OC1C2CC3CC(C2)CC1C3 (centres undefined)	7220 nM	–
CC(=O)Nc1nc(CC(C)(NC(=O)OC2C3CC4CC(C3)CC2C4)C(=O)NCCc2ccccc2)cs1 (centres undefined)	5350 nM	–
